Results: patent US12083084B2, “Method for enhancing energy production and metabolism in cells” (REPLICON HEALTH OY, priority 2013, dated 2024)
“Also recorded” adds a separate entry of the source.

Experiments:
[1] = system: rat cortical neurons; assay: LDH viability/cytotoxicity of rat cortical neurons (calorie restriction, high doses); type: cell-based
Description: Cell culture. Cortical neurons were dissected from P1 rats and cultured in 96-well plates up to 7 days in the medium containing: neurobasal medium, 1.5% B27 supplement, 1 mM L-glutamine, penicillin/streptomycin.
Treatment of cells with DGAcs was done in two different ways. In all studies the total cultivation time was 7 days (7th day in vitro=7 DIV). In the first study a clear element of calorie restriction (CR) was built in to the standard model provided by the CRO. The other 24 hour pretreatment was without CR (more info in examples 2.1 and 2.2 below). Separately also exceptionally high doses of DGAcs were administered to neurons. […] (Effective dose was […]).
Cell Viability/Cytotoxicity. Cell Viability was Detected by LDH Tests Like in Examples 1.1-1.2.
Cell treatment: concentration of DGAcs (10, 50 and 100 μg/ml) was added into cell culture medium at 4 DIV. After 24 h (at 5 DIV) 25% of medium was changed to fresh containing 1.5× concentration of DGAcs. Same treatment (change 25% with 1.5× concentration) was repeated at 6 DIV. The cells were transferred into Mg^2+-free Locke's buffer containing the same concentrations of DGAcs immediately before imaging experiments (at 7 DIV). For controls the same amount of medium was changed without addition of DGAcs.
Cell treatment according to the protocol renewed only 25% of the medium during 5 DIV and 6 DIV, meaning that neurons received only very small amounts of new nutrition, i.e. experienced calorie restrictions (CR). […] This same phenomenon of increased cell death in CR was already seen with human hepatocytes in previous examples. Likely explanation is the same: DGAcs administration increases metabolic activity in neurons and/or their (aerobic) ATP production and consumption, which leads to enhanced cell cycle control and programmed cell death (apoptosis) in nutritional scarcity. […] Viability loss compared to zero control was highest and statistically significant in 10 μg/ml group but also all other groups experienced loss of viability.

[2] = system: human primary hepatocytes; assay: NAD+/NADH quantification in human hepatocytes; type: cell-based; set-up: NADtot / NADH / NAD+ / NAD+/NADH: unit not given here; conditions: 48 h + 3 h
Description: For the measurement of total NAD (NADtot=NADH+NAD^+) and NAD^+/NADH ratio, a NAD^+/NADH Quantification kit (MAK037) from Sigma was used. NAD functions as an electron carrier, fluctuating between the oxidized (NAD^+) and reduced (NADH) forms. In addition, NAD^+ plays critical roles in ADP-ribosylation reaction and as a substrate for sirtuins. According to the Sigma instruction, the NAD^+/NADH Quantification kit (Sigma) provides a convenient tool for sensitive detection of NAD, NADH and their ratio without requirement to purify them from samples. Important to notice is that the kit measures NADH and NAD^+ in whole cell including all cell organelles and compartments. Mitochondrial matrix is clearly dominant NADH producer from TCA and beta oxidation (consuming naturally the same amount of NAD^+ in redox reactions). Importantly, formed NADH is also typically oxidized into NAD^+ in the matrix by Complex I in ETC. As is well known anaerobic carbohydrate metabolism, i.e. glycolysis, in cytosol also consumes NAD^+ and produces NADH.
Cell culture in NADH-tests was like in Example 1.1. The change of the medium with DGAcs was conducted at 0 h, 24 h and 48 h. NAD measurements were made at 48+3 h in all cases. For CDP also HPA was tested, and for DOO no new nutrition at 48 h was added, i.e. test was conducted in fasting conditions.

[3] = 3 week ad libitum feeding study, food intake and body weight; type: in vivo, rat
Description: In this in vivo experiment 45 rats (24 males and 21 females) were tested in Finnish National Institute of Health. Used DGAcs doses were high compared to human trials ranging between 100-1000 mg/kg/day, but on the other hand the metabolism of rats is much faster than in humans and thus the effective doses for rats can be clearly higher than for humans. In some experiments even 20-50 times higher compared to humans in vivo have been reported in literature. Thus this experiment can give indication also for human use. The animals were kept under controlled conditions, with the temperature set from 20° C. to 21° C., the humidity at 47.6%, and a 12-hour light-dark cycle (lights on at 6:00 am). In this ad libitum feeding study the DGAcs was mixed in the diet for the whole experimental period (3 weeks). The animals were divided into 4 groups, which received 0 (zero control), 2, 10, and 20 g glycerate per kilogram of diet. The average DGAcs consumption was 0.1, 0.5, and 1.0 g/kg per day, respectively, as calculated based on weekly food consumption. The animals experimented were 3 to 5 months old AA rats. The animals were given water and a standard laboratory feed (SDS RM1) ad libitum for 3 weeks. In the experiment the development of weights of rats receiving DGAcs, and the control were measured, as well as the food consumption during the experiment and change in the body weight. Males and females were separated resulting altogether to 8 groups with 5-6 animals in each.

[4] = donor alpha, new nutrition at 48 h, N = 5, 1.4 (μM)
[5] = donor alpha, new nutrition at 48 h, N = 5, 14 (μM)
[6] = donor one, new nutrition at 48 h, N = 5, 1.4 (μM)
[7] = donor one, new nutrition at 48 h, N = 5, 14 (μM)
[8] = donor three, no new nutrition at 48 h (fasting), N = 3, 1.4 (μM)
[9] = donor three, no new nutrition at 48 h (fasting), N = 3, 14 (μM)

O.O.O=C([O-])[C@H](O)CO.O=C([O-])[C@H](O)CO.[Ca+2] [DGAcs, D-glyceric acid, calcium salt dehydrate]
neuronal viability (LDH) under calorie restriction vs zero control ([1]; 10, 50 and 100 μg/ml from 4 DIV, only 25% of medium renewed at 5 and 6 DIV, FIG. 13): dose dependent viability loss; also recorded: confirmed statistically significantly
toxicity to neurons ([1]; 40-200 times the effective treatment dose): No toxicity was observed
Effective dose ([1]; rat cortical neurons): 10-50 μg/m
Change in NAD+/NADH vs. Control [2, 4]: −53%
NAD+ [2, 4]: 0.009
NAD+/NADH [2, 4]: 0.040
NADH [2, 4]: 0.222
NADtot [2, 4]: 0.231
Change in NAD+/NADH vs. Control [2, 5]: −62%
NAD+ [2, 5]: 0.007
NAD+/NADH [2, 5]: 0.032
NADH [2, 5]: 0.225
NADtot [2, 5]: 0.232
Change in NAD+/NADH vs. Control [2, 6]: −39.3%
NAD+ [2, 6]: 0.040
NAD+/NADH [2, 6]: 0.139
NADH [2, 6]: 0.289
NADtot [2, 6]: 0.329
Change in NAD+/NADH vs. Control [2, 7]: −87.2%
NAD+ [2, 7]: 0.009
NAD+/NADH [2, 7]: 0.029
NADH [2, 7]: 0.294
NADtot [2, 7]: 0.302
Change in NAD+/NADH vs. Control [2, 8]: −64.6%
NAD+ [2, 8]: 0.004
NAD+/NADH [2, 8]: 0.017
NADH [2, 8]: 0.239
NADtot [2, 8]: 0.243
Change in NAD+/NADH vs. Control [2, 9]: −24.0%
NAD+ [2, 9]: 0.009
NAD+/NADH [2, 9]: 0.037
NADH [2, 9]: 0.232
NADtot [2, 9]: 0.240
increase in food intake ([3]; DGAcs groups, males and females): 2.5-4%
average weight change compared to control ([3]; female rats, 3 weeks): +0.2%
average weight increasing compared to control ([3]; female rats, 3 weeks): 0.6 grams
food intake higher compared to the control ([3]; female rats, DGAcs groups combined, 3 weeks): 2.5%
food intake higher compared to the control ([3]; male rats, DGAcs groups combined (0.1, 0.5, 1.0 g/kg per day), 3 weeks): 3.7%
amount of unexplained energy consumption ([3]; males): roughly 5%
